Results published in ChEMBL document CHEMBL1132589, “Phosphotyrosine-containing dipeptides as high-affinity ligands for the p56lck SH2 domain” (J Med Chem, 1999).
Where a SMILES comes first, the peptide text is derived from it. [ ]: non-standard residue; d: D form. The star is where a group is joined. pY = N[C@@H](Cc1ccc(OP(=O)(O)O)cc1)C(=O)O; NHPhenethyl = c1ccc(CCN*)cc1; NHBn = c1ccc(CN*)cc1; NHPh = c1ccc(N*)cc1

Target: Tyrosine-protein kinase Lck (Homo sapiens, UniProt P06239)
Sequence (P06239 whole entry): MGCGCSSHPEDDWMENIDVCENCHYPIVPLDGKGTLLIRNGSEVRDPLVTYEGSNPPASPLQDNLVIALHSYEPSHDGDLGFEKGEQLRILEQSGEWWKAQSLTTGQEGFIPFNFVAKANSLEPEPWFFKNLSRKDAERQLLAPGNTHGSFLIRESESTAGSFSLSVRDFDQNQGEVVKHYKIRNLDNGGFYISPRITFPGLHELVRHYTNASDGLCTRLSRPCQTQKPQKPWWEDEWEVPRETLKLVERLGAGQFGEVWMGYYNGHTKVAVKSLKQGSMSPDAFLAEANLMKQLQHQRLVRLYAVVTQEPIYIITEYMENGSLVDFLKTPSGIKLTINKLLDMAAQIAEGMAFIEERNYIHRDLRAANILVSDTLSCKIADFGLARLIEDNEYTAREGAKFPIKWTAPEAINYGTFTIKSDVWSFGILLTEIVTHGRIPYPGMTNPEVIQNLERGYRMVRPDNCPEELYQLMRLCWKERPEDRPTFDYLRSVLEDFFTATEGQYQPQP
Description: Binding affinity against p56 Lck tyrosine kinase SH2 domain was measured using glutathione S-transferase (GST) fusion protein

Structure (SMILES)	Kd
CC(=O)N[C@@H](Cc1ccc(OP(=O)(O)O)cc1)C(=O)N[C@@H](CC(C)C)C(=O)NCc1cccnc1	34 µM
CC(=O)N[C@@H](Cc1ccc(OP(=O)(O)O)cc1)C(=O)N[C@@H](CC(C)C)C(=O)NCc1ccncc1	16 µM
CC(=O)N[C@@H](Cc1ccc(OP(=O)(O)O)cc1)C(=O)N[C@@H](CC(C)C)C(=O)NCc1ccc(C(C)(C)C)cc1	8 µM
CC(=O)N[C@@H](Cc1ccc(OP(=O)(O)O)cc1)C(=O)N[C@@H](CC(C)C)C(=O)N[C@@H](C)c1ccc(C)cc1	1.5 µM
CC(=O)N[C@@H](Cc1ccc(OP(=O)(O)O)cc1)C(=O)N[C@@H](CC(C)C)C(=O)NCc1ccc(C)cc1	2.5 µM
CC(=O)N[C@@H](Cc1ccc(OP(=O)(O)O)cc1)C(=O)N[C@@H](CC(C)C)C(=O)N[C@H](C)c1ccc(C)cc1	27 µM
CC(=O)N[C@@H](Cc1ccc(OP(=O)(O)O)cc1)C(=O)N[C@@H](CC(C)C)C(=O)N(C)Cc1ccc(C)cc1	2 µM
CC(=O)N[C@@H](Cc1ccc(OP(=O)(O)O)cc1)C(=O)N[C@@H](CC(C)C)C(=O)NCc1ccc(C(C)C)cc1	0.8 µM
CC(=O)N[C@@H](Cc1ccc(OP(=O)(O)O)cc1)C(=O)N[C@@H](CC(C)C)C(=O)N[C@@H](C)c1ccc(C(C)C)cc1	0.2 µM
CC(=O)N[C@@H](Cc1ccc(OP(=O)(O)O)cc1)C(=O)N[C@@H](CC(C)C)C(=O)NCc1ccc(N(C)C)cc1	20 µM
COc1ccc(CNC(=O)[C@H](CCC(=O)O)NC(=O)[C@H](Cc2ccc(OP(=O)(O)O)cc2)NC(C)=O)cc1	0.2 µM
CC(=O)N[C@@H](Cc1ccc(OP(=O)(O)O)cc1)C(=O)N[C@@H](CCC(=O)O)C(=O)Nc1ccccc1 (Ac-[pY]-Glu-NHPh)	8 µM
CC(=O)N[C@@H](Cc1ccc(OP(=O)(O)O)cc1)C(=O)N[C@@H](CCC(=O)O)C(=O)NCCc1ccccc1 (Ac-[pY]-Glu-NHPhenethyl)	4 µM

Other lines, results leading:

Kd	Structure (SMILES)
31 µM	CC(=O)N[C@@H](Cc1ccc(OP(=O)(O)O)cc1)C(=O)N[C@@H](CC(C)C)C(=O)NCc1ccccn1
12 µM	COc1ccc(CNC(=O)[C@H](CC(C)C)NC(=O)[C@H](Cc2ccc(OP(=O)(O)O)cc2)NC(C)=O)cc1OC
1.5 µM	COc1ccc(CNC(=O)[C@H](CC(C)C)NC(=O)[C@H](Cc2ccc(OP(=O)(O)O)cc2)NC(C)=O)cc1
17 µM	COc1ccccc1CNC(=O)[C@H](CC(C)C)NC(=O)[C@H](Cc1ccc(OP(=O)(O)O)cc1)NC(C)=O
9 µM	COc1cccc(CNC(=O)[C@H](CC(C)C)NC(=O)[C@H](Cc2ccc(OP(=O)(O)O)cc2)NC(C)=O)c1
16 µM	CC(=O)N[C@@H](Cc1ccc(OP(=O)(O)O)cc1)C(=O)N[C@@H](CC(C)C)C(=O)NCc1ccccc1 (Ac-[pY]-Leu-NHBn)
